Test results as given in patent US8030354B2, “Substituted biphenyl GPR40 modulators” (Amgen Inc., priority 2007, dated 2011).

Key:
GPR40 [1] = target: T1, GPR40 (Homo sapiens, UniProt O14842); assay: Cell-based aequorin assay (CHO cells stably expressing GPR40 and aequorin); design: expressed in transfected cells; host or cells: CHO cells stably transfected with GPR40 and aequorin; settings: activation of human GPR40, CHO cells, 0.01% HSA
Method in brief: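 CHO cells stably co-expressing GPR40 and aequorin, loaded with coelenterazine (1 ug/mL, 2 h, room temperature) in H/HBSS with 20 mM Hepes and 0.01% fatty acid-free HSA. Serially diluted compounds added; luminescence recorded over 20 s. EC50 from dose-response of maximum relative light units.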

GPR40 [2] = target: T1, GPR40; assay: Inositol phosphate accumulation assay (A9_GPR40 cells); format: cell-based; design: expressed in transfected cells; host or cells: CHO cells stably transfected with GPR40 and aequorin; settings: inositol phosphate assay, A9_GPR40 cells, 1 hour; read-out: IP3 EC50
Method in brief: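 A9 cells stably expressing GPR40 were labelled 16 h with 1 μCi/mL ^3H-inositol in inositol-free DMEM with dialysed FBS. Compounds in HBSS/10 mM LiCl with HSA were applied for 1 h at 37° C, then quenched with 20 mM formic acid. Accumulated [^3H] inositol phosphates were counted by SPA.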

T1 sequence (O14842 whole entry): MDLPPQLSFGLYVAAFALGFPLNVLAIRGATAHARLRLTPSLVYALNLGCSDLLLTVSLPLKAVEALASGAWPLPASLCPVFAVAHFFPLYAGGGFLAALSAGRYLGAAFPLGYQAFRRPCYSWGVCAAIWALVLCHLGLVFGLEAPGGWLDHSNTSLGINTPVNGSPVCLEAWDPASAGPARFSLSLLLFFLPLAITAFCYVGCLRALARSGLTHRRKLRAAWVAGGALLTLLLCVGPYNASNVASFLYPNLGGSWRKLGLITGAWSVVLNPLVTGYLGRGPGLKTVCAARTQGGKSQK

| SMILES | EC50 (GPR40 [1]) | EC50 (GPR40 [2]) |
| --- | --- | --- |
| COc1cc(-c2ccc(COc3cccc(C(CC(=O)O)C4CC4)c3)cc2C2=CCCC2(C)C)ccn1 (single isomer, unassigned) [Example 66.66, (3S)-3-(3-(3-(5,5-Dimethylcyclopent-1-enyl)-4-(2-methoxypyridin-4-yl)benzyloxy)phenyl)-3-cyclopropylpropanoic acid or (3R)-3-(3-(3-(5,5-dimethylcyclopent-1-enyl)-4-(2-methoxypyridin-4-yl)benzyloxy)phenyl)-3-cyclopropylpropanoic acid] | 100 to 1000 nM | 10 to 100 nM |
| C=CC1(c2cc(COc3cccc([C@@H](CC(=O)O)C4CC4)c3)ccc2-c2cc(OC)ncc2F)CCCC1 (single isomer, unassigned) [Example 66.67, (3S)-3-(3-(4-(5-Fluoro-2-methoxypyridin-4-yl)-3-(1-vinylcyclopentyl)benzyloxy)phenyl)-3-cyclopropylpropanoic acid or (3R)-3-(3-(4-(5-fluoro-2-methoxypyridin-4-yl)-3-(1-vinylcyclopentyl)benzyloxy)phenyl)-3-cyclopropylpropanoic acid] | 100 to 1000 nM | 10 to 100 nM |
| COc1ccc(F)c(-c2ccc(COc3cccc([C@@H](CC(=O)O)C4CC4)c3)cc2C2=CCCC2)c1 (single isomer, unassigned) [Example 66.68, (S)-3-[3-(2-Cyclopent-1-enyl-2′-fluoro-5′-methoxy-biphenyl-4-ylmethoxy)-phenyl]-3-cyclopropyl-propionic acid or (R)-3-[3-(2-cyclopent-1-enyl-2′-fluoro-5′-methoxy-biphenyl-4-ylmethoxy)-phenyl]-3-cyclopropyl-propionic acid] | 100 to 1000 nM | 10 to 100 nM |
| COc1ccc(F)c(-c2ccc(COc3cccc([C@@H](CC(=O)O)C4CC4)c3)cc2CN2[C@H](C)CCC[C@H]2C)c1 (single isomer, unassigned) [Example 66.69] | 100 to 1000 nM | 10 to 100 nM |
| COc1ccc(F)c(-c2ccc(COc3cccc(C(CC(=O)O)C4CC4)c3)cc2CN2C(C)CCCC2C)c1 (single isomer, unassigned) [Example 66.70] | 100 to 1000 nM | 10 to 100 nM |
| COc1ccc(F)c(-c2ccc(COc3cccc([C@@H](CC(=O)O)C4CC4)c3)cc2CN2[C@H](C)CC[C@H]2C)c1 (single isomer, unassigned) [Example 66.71, (3S)-3-Cyclopropyl-3-(3-(((2-(((2R,5R)-2,5-dimethyl-1-pyrrolidinyl)methyl)-2′-fluoro-5′-(methyloxy)-1,1′-biphenyl-4-yl)methyl)oxy)phenyl)propanoic acid or (3R)-3-cyclopropyl-3-(3-(((2-(((2R,5R)-2,5-dimethyl-1-pyrrolidinyl)methyl)-2′-fluoro-5′-(methyloxy)-1,1′-biphenyl-4-yl)methyl)oxy)phenyl)propanoic acid] | 100 to 1000 nM | 100 to 1000 nM |
| COc1cc(-c2cc(F)c(COc3cccc([C@@H](CC(=O)O)C4CC4)c3)cc2[C@H]2CCCC2(C)C)c(F)cn1 (single isomer, unassigned) [Example 66.77] | 10 to 100 nM | < 10 nM |

The next lines start with the values.

| EC50 (GPR40 [1]) | EC50 (GPR40 [2]) | SMILES |
| --- | --- | --- |
| 100 to 1000 nM | 100 to 1000 nM | CCCC(CC(=O)O)c1cccc(OCc2ccc(-c3cc(OC)ccc3F)c(OC3CCCCCC3)c2)c1 (single isomer, unassigned) [Example 67.2, (3R)-3-(3-(((2-(Cycloheptyloxy)-2′-fluoro-5′-(methyloxy)-1,1′-biphenyl-4-yl)methyl)oxy)phenyl)hexanoic acid or (3S)-3-(3-(((2-(cycloheptyloxy)-2′-fluoro-5′-(methyloxy)-1,1′-biphenyl-4-yl)methyl)oxy)phenyl)hexanoic acid] |
| 100 to 1000 nM | 10 to 100 nM | CCCC(CC(=O)O)c1cccc(OCc2ccc(-c3cc(OC)ccc3F)c(C3=CCCCCC3)c2)c1 (single isomer, unassigned) [Example 67.6, (3R)-3-(3-(((2-(1-Cyclohepten-1-yl)-2′-fluoro-5′-(methyloxy)-1,1′-biphenyl-4-yl)methyl)oxy)phenyl)hexanoic acid or (3S)-3-(3-(((2-(1-cyclohepten-1-yl)-2′-fluoro-5′-(methyloxy)-1,1′-biphenyl-4-yl)methyl)oxy)phenyl)hexanoic acid] |
| 100 to 1000 nM | 10 to 100 nM | CCCC(CC(=O)O)c1cccc(OCc2ccc(-c3cc(OC)ccc3F)c(C3CCCCCC3)c2)c1 (single isomer, unassigned) [Example 67.7, (3R)-3-(3-(((2-Cycloheptyl-2′-fluoro-5′-(methyloxy)-1,1′-biphenyl-4-yl)methyl)oxy)phenyl)hexanoic acid or (3S)-3-(3-(((2-cycloheptyl-2′-fluoro-5′-(methyloxy)-1,1′-biphenyl-4-yl)methyl)oxy)phenyl)hexanoic acid] |
| 100 to 1000 nM | 10 to 100 nM | CCCC(CC(=O)O)c1cccc(OCc2ccc(-c3cc(OC)ccc3F)c(C3CCCCC3)c2)c1 (single isomer, unassigned) [Example 67.8, (3R)-3-(3-(((2-Cyclohexyl-2′-fluoro-5′-(methyloxy)-1,1′-biphenyl-4-yl)methyl)oxy)phenyl)hexanoic acid or (3S)-3-(3-(((2-cyclohexyl-2′-fluoro-5′-(methyloxy)-1,1′-biphenyl-4-yl)methyl)oxy)phenyl)hexanoic acid] |
| 100 to 1000 nM | 10 to 100 nM | CCC[C@H](CC(=O)O)c1cccc(OCc2ccc(-c3cc(OC)ccc3F)c(C3CCCC3(C)C)c2)c1 (single isomer, unassigned) [Example 67.11, (3R)-3-(3-(((2-(2,2-Dimethylcyclopentyl)-2′-fluoro-5′-(methyloxy)-1,1′-biphenyl-4-yl)methyl)oxy)phenyl)hexanoic acid or (3S)-3-(3-(((2-(2,2-dimethylcyclopentyl)-2′-fluoro-5′-(methyloxy)-1,1′-biphenyl-4-yl)methyl)oxy)phenyl)hexanoic acid] |
| 100 to 1000 nM | 10 to 100 nM | CCCC(CC(=O)O)c1cccc(OCc2ccc(-c3cccc(OC)c3)c(C3=CCCC3(C)C)c2)c1 (single isomer, unassigned) [Example 67.12, (3R)-3-(3-(((2-(5,5-Dimethyl-1-cyclopenten-1-yl)-3′-(methyloxy)-1,1′-biphenyl-4-yl)methyl)oxy)phenyl)hexanoic acid or (3S)-3-(3-(((2-(5,5-dimethyl-1-cyclopenten-1-yl)-3′-(methyloxy)-1,1′-biphenyl-4-yl)methyl)oxy)phenyl)hexanoic acid] |
| 100 to 1000 nM | 10 to 100 nM | CCC[C@H](CC(=O)O)c1cccc(OCc2ccc(-c3cc(OC)ccc3F)c(N3CCCCC3)c2)c1 (single isomer, unassigned) [Example 67.20, (3R)-3-(3-(((2′-Fluoro-5′-(methyloxy)-2-(1-piperidinyl)-1,1′-biphenyl-4-yl)methyl)oxy)phenyl)hexanoic acid or (3S)-3-(3-(((2′-fluoro-5′-(methyloxy)-2-(1-piperidinyl)-1,1′-biphenyl-4-yl)methyl)oxy)phenyl)hexanoic acid] |
| 100 to 1000 nM | 10 to 100 nM | CCC[C@H](CC(=O)O)c1cccc(OCc2cc(C3=CCCC3(C)C)c(-c3cc(OC)ccc3F)cc2F)c1 (single isomer, unassigned) [Example 67.21] |
| 100 to 1000 nM | 10 to 100 nM | C=CC(C)(C)[C@H](OC)c1cc(COc2cccc([C@H](CCC)CC(=O)O)c2)ccc1-c1cc(OC)ccc1F (single isomer, unassigned) [Example 67.24] |
| 100 to 1000 nM | < 10 nM | COc1ccc(F)c(-c2ccc(COc3cccc(C(CC(=O)O)CC4CC4)c3)cc2C2CCCCCC2)c1 (single isomer, unassigned) [Example 69.1, (3R)-3-(3-(((2-Cycloheptyl-2′-fluoro-5′-(methyloxy)-1,1′-biphenyl-4-yl)methyl)oxy)phenyl)-4-cyclopropylbutanoic acid or (3S)-3-(3-(((2-cycloheptyl-2′-fluoro-5′-(methyloxy)-1,1′-biphenyl-4-yl)methyl)oxy)phenyl)-4-cyclopropylbutanoic acid] |
| 100 to 1000 nM | 10 to 100 nM | COc1cccc(-c2ccc(COc3cccc(C(CC(=O)O)CC4CC4)c3)cc2C2=CCCC2(C)C)c1 (single isomer, unassigned) [Example 69.2, (3R)-4-Cyclopropyl-3-(3-(((2-(5,5-dimethyl-1-cyclopenten-1-yl)-3′-(methyloxy)-1,1′-biphenyl-4-yl)methyl)oxy)phenyl)butanoic acid or (3S)-4-cyclopropyl-3-(3-(((2-(5,5-dimethyl-1-cyclopenten-1-yl)-3′-(methyloxy)-1,1′-biphenyl-4-yl)methyl)oxy)phenyl)butanoic acid] |
| 100 to 1000 nM | 10 to 100 nM | COc1cccc(-c2ccc(COc3cccc(C(CC(=O)O)CC4CC4)c3)cc2C(C)(C)C)c1 (single isomer, unassigned) [Example 69.3, (3R)-4-Cyclopropyl-3-(3-(((2-(1,1-dimethylethyl)-3′-(methyloxy)-1,1′-biphenyl-4-yl)methyl)oxy)phenyl)butanoic acid or (3S)-4-cyclopropyl-3-(3-(((2-(1,1-dimethylethyl)-3′-(methyloxy)-1,1′-biphenyl-4-yl)methyl)oxy)phenyl)butanoic acid] |
